Patent US20210380586A1, “2-INDOLYL IMIDAZO[4,5-D]PHENANTHROLINE POLYMORPHS AND COMPOSITIONS REGARDING THE SAME” (Aptose Biosciences Inc., priority 2020, published 2021)

How the values were obtained:
[1] = Formulation development: solubility and clinical infusion simulation through 5 μm in-line filter; format: physicochemical
Procedure: Various pharmaceutical compositions were prepared in order to develop a formulation suitable for IV administration. […] A desirable IV pharmaceutical composition will be a solution. Further, a desirable IV pharmaceutical composition, when diluted with IV fluids will remain in solution. In addition, a desirable IV pharmaceutical composition, when diluted with IV fluids will remain in solution and pass an in-line filter of about 5 μm.
Clinical infusion simulation study: formulated Compound I (equivalent to 4 mg/mL Compound I free base tetrahydrate) was mixed in-line with Lactated Ringers IV Solution through a controlled delivery system employing infusion pumps. The blended liquid was passed through a 5 μm in-line filter and the eluate was then passed to the end of the infusion line. Sample analysis was performed by collecting materials at 0, 15, 30, 60, 75, 90, 105, 115 and 120 minutes and analyzing immediately be visual assessment under a microscope.

[2] = test system: acute myeloid leukemia (AML) cell lines; assay: In vitro antiproliferative assay; format: cell-based
From the text: (§1) Compound I free base and Compound I HCl salt were both tested for their in vitro antiproliferative potency against acute myeloid leukemia (AML) cell lines, for their concentration-dependent abilities to induce in vitro changes in gene expression (KLF4, c-Myc, CDX2, p21, and GAPDH genes) and to induce cell cycle arrest and apoptosis in AML cell lines.

[3] = test system: KLF4, c-Myc, CDX2, p21, and GAPDH genes; assay: In vitro changes in gene expression; format: cell-based; settings: AML cell lines
From the text: as §1

AML cell lines = assay: Induction of cell cycle arrest and apoptosis; format: cell-based
From the text: as §1

c-Myc oncogene = assay: Inhibition of c-Myc expression in cancer cells; format: cell-based; settings: human-derived solid tumor and hematologic cancer cells
From the text: (§2) Compound I is a small molecule that inhibits expression of the c-Myc oncogene, leading to cell cycle arrest and programmed cell death (apoptosis) in human-derived solid tumor and hematologic cancer cells.

[4] = test system: xenograft models of solid tumors and hematologic cancers; assay: Nonclinical pharmacology xenograft studies; format: in vivo
From the text: as §2

Cc1[nH]c2ccc(F)cc2c1-c1nc2c3cccnc3c3ncccc3c2[nH]1 [Compound I, 2-(5-fluoro-2-methyl-1H-indol-3-yl)-1H-imidazo[4,5-f][1,10]phenanthroline]
solubility compared with Compound I-HCl under the same conditions ([1]; Solutol HS 15, PG, PEG-400, water): more soluble
apparent solubility while adding water to the formulation ([1]; in the beginning, approximately 3-10 mL water added): more soluble
behaviour upon addition of IV fluid ([1]; pharmaceutical composition prepared with Fischer Scientific's PG): crashed out of solution
effect of PEG-400 on solubility ([1]; tested conditions (entries 2 and 3)): did not improve solubility
apparent solubility while adding water to the formulation ([1]; upon complete addition of water (up to 60 mL), cloudy formulation): insoluble
in vitro antiproliferative potency, free base versus HCl salt [2]: behaved equivalently
concentration-dependent in vitro changes in gene expression, free base versus HCl salt [3]: behaved equivalently
induction of cell cycle arrest and apoptosis, free base versus HCl salt (AML cell lines): behaved equivalently
expression of the c-Myc oncogene (c-Myc oncogene): inhibits
in vivo anti-tumor activity [4]: demonstrated in vivo anti-tumor activity
